{"source": "ChEMBL document CHEMBL1201862", "about": "“PubChem BioAssay data set” (2004)", "assay_type_in_all_cases": "functional", "key": {"Beta-galactosidase": {"target": "Beta-galactosidase (Escherichia coli, UniProt Q8VNN2)", "sequence (Q8VNN2 whole entry)": "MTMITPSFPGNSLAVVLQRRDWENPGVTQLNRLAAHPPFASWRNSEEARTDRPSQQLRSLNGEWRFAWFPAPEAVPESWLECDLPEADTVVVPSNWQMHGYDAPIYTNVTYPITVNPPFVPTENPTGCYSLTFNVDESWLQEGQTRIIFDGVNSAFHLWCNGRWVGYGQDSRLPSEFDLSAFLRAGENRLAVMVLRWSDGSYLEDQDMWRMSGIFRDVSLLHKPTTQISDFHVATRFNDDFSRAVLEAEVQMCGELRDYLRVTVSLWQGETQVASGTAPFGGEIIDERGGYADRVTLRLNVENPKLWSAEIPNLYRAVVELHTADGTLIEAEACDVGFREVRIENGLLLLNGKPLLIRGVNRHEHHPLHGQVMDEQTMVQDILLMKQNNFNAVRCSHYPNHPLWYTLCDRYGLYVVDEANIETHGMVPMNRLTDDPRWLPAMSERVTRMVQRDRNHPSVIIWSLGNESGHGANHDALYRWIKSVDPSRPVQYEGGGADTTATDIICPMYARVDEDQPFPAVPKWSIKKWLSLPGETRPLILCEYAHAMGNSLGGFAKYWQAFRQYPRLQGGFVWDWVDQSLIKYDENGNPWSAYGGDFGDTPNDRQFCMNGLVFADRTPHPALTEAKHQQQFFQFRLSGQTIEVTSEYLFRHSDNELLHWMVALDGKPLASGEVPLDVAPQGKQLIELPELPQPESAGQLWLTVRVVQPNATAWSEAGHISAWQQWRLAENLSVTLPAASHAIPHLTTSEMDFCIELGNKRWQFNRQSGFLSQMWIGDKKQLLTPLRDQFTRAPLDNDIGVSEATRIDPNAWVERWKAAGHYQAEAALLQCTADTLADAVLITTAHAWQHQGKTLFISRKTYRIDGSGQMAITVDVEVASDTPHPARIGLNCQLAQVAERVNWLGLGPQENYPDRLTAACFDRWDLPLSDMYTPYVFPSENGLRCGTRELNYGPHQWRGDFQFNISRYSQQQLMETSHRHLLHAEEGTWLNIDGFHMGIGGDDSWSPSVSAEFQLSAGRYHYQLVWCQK", "test": "PubChem AID 485352"}, "[1]": {"target": "T1, Type-1 angiotensin II receptor (Homo sapiens, UniProt P30556)", "T1 sequence (P30556 whole entry)": "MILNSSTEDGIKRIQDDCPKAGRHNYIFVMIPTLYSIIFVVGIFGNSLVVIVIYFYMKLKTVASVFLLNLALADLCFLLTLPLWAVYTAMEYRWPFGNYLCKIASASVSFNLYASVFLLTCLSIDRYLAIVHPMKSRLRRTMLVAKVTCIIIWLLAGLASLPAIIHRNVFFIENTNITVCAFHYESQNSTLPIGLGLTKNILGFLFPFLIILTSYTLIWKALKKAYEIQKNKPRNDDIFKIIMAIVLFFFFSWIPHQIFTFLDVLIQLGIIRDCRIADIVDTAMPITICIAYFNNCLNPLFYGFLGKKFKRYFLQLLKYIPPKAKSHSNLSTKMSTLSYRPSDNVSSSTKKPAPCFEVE", "test": "antagonism of angiotensin II type 1 receptor – cell-based, uHTS hits, selectivity assay for APJ receptor antagonist project, dose response (AID 463214);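 also: antagonist potency against angiotensin II stimulated AT1 response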"}, "[2]": {"test": "bead-based luminescence quenchers, dual-tagged ARNT – biochemical, AlphaScreen, cherry-pick, artefact control for ARNT-TACC3 interaction inhibitor project, dose response (AID 651705);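 also: AlphaScreen bead proximity signal that flags compounds interfering with the detection technology; potency reflects signal decrease which marks the compound as an assay artifact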"}, "Protein Wnt-3a": {"target": "Protein Wnt-3a (Mus musculus, UniProt P27467)", "sequence (P27467 whole entry)": "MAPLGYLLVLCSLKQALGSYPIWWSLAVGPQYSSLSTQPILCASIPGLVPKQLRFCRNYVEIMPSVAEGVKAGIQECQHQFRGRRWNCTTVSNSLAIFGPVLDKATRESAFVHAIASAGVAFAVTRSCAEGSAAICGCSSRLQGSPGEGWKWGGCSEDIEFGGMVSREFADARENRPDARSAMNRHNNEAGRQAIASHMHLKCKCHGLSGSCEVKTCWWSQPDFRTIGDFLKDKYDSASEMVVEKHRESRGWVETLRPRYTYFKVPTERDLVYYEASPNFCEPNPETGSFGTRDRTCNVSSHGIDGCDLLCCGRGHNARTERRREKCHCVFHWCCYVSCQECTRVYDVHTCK", "test": "antagonism of Wnt3a pathway luciferase reporter – Wnt-LIGHT cells, luminescence, selectivity assay for Gli-SUFU antagonist project, dose response (AID 651570);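 also: Wnt-LIGHT reporter cells stimulated with conditioned medium from Wnt3a-producing cells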", "details": "read-out: IC50_Mean"}, "[3]": {"target": "T2, Sentrin-specific protease 7 (Homo sapiens, UniProt Q9BQF6)", "T2 sequence (Q9BQF6 whole entry)": "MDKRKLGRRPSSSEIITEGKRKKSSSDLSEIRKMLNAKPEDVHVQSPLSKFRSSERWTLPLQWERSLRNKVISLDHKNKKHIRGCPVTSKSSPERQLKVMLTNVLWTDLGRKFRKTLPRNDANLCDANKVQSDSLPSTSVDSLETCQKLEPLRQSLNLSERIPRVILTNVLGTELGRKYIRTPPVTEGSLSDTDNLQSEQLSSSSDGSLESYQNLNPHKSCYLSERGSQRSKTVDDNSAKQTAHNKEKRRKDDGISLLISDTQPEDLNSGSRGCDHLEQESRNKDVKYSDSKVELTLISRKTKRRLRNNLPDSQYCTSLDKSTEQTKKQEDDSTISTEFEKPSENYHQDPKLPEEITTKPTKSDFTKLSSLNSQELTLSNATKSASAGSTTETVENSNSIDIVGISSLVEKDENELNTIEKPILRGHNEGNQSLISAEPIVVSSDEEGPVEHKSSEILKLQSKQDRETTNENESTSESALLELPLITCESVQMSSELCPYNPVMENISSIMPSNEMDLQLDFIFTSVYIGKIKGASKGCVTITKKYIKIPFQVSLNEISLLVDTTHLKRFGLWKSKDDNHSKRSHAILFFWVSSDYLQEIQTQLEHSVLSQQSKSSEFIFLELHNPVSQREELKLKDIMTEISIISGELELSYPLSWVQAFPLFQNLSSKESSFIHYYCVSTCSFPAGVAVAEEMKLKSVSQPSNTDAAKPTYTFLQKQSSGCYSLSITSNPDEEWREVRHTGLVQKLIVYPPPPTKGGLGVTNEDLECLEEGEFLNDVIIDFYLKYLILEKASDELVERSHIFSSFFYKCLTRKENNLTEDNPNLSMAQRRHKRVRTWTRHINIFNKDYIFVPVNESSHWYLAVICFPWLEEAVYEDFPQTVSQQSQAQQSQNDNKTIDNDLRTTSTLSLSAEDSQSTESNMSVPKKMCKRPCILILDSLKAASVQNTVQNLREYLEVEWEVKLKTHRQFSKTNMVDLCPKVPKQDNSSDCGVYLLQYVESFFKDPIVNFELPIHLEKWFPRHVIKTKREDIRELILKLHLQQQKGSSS"}, "Caspase-3": {"target": "T3, Caspase-3 (Homo sapiens, UniProt P42574)", "T3 sequence (P42574 whole entry)": "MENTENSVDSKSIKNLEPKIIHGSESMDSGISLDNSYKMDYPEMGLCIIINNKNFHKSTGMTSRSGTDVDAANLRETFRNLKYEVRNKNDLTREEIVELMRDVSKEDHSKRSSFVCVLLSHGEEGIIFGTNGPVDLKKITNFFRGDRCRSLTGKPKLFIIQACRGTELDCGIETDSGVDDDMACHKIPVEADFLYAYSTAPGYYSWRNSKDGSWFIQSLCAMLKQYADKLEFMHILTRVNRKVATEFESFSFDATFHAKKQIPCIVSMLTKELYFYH"}, "[4]": {"target": "T4, Sentrin-specific protease 8 (Homo sapiens, UniProt Q96LD8)", "T4 sequence (Q96LD8 whole entry)": "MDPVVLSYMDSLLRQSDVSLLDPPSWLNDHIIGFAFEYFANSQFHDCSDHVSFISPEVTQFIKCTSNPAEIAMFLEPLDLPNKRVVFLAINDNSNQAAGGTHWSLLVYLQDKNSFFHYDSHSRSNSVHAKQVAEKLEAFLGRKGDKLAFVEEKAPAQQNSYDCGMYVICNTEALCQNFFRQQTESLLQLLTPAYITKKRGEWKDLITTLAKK"}, "[5]": {"target": "T5, Sentrin-specific protease 6 (Homo sapiens, UniProt Q9GZR1)", "T5 sequence (Q9GZR1 whole entry)": "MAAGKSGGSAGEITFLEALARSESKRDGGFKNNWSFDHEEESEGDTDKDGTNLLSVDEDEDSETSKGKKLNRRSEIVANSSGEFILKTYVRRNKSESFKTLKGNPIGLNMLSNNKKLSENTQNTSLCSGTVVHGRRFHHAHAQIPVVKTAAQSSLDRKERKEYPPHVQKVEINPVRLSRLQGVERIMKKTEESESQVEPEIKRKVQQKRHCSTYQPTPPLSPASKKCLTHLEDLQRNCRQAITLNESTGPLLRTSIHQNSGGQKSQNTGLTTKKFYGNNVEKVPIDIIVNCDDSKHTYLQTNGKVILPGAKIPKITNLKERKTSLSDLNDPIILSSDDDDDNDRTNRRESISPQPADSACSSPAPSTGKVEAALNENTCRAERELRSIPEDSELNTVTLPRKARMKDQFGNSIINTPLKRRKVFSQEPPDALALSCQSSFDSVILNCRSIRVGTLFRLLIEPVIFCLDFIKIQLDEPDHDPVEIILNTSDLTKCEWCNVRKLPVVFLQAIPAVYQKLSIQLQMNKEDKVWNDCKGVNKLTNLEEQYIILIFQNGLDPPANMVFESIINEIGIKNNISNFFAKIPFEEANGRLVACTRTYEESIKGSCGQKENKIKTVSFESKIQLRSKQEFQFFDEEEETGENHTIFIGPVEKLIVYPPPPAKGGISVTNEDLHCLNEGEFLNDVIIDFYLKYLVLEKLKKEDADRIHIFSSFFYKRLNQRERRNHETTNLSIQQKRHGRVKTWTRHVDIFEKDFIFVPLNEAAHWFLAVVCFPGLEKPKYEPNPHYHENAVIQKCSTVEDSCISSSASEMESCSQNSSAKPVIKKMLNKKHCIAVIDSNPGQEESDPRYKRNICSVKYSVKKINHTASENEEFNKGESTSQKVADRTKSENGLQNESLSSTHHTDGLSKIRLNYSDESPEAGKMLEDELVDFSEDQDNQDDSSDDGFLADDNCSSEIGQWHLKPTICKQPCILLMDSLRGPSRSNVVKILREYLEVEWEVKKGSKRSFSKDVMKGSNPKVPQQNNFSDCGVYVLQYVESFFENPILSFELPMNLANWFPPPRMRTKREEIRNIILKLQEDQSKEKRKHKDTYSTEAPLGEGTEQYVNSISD"}, "[6]": {"test": "loss of viability in HepG2 cells – cell-based, CellTiter-Glo, cherry-picked, cytotoxicity control for Shn3 inhibitor project, dose response (AID 624134)"}, "[7]": {"test": "reduction of Shn3 3'UTR-driven luciferase in osteoblasts – cell-based, Clone20 osteoblasts, firefly luciferase, cherry-picked, dose response (AID 624132)"}, "[8]": {"target": "T6, Apoptotic protease-activating factor 1 (Homo sapiens, UniProt O14727)", "T6 sequence (O14727 whole entry)": "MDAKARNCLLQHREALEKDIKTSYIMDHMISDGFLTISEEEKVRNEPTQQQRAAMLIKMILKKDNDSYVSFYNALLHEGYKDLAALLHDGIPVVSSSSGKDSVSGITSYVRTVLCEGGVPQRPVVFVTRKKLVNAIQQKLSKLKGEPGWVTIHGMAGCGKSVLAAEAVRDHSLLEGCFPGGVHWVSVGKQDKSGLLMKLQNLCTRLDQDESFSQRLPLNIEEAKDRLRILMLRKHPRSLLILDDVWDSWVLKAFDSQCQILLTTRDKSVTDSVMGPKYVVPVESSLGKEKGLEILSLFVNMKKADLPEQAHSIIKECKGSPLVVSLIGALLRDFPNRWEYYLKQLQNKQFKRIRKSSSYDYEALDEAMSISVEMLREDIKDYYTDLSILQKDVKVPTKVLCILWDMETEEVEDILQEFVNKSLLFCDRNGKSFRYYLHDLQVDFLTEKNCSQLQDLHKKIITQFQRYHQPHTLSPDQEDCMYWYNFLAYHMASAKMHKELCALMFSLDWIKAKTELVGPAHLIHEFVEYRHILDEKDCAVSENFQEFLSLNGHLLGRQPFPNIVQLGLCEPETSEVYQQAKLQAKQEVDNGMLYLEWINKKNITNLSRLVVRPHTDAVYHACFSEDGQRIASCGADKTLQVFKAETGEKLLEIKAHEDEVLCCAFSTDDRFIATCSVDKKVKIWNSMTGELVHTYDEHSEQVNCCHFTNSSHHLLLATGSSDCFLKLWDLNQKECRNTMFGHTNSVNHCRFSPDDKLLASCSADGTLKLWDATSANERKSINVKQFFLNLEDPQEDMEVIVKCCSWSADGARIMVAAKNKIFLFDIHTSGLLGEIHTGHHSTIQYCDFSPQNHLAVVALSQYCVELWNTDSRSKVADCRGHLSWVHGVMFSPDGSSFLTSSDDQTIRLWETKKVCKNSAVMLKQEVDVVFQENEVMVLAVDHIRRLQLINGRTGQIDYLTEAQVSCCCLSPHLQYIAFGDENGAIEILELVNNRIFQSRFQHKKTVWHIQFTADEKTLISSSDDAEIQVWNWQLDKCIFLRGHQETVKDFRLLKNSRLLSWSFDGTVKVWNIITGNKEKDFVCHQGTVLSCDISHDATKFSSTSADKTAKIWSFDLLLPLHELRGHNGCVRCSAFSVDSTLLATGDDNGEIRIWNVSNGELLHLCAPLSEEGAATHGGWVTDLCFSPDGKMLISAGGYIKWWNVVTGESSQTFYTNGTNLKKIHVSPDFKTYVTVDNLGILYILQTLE"}, "[9]": {"test": "viability of uninfected HEp-2 cells – cell-based, HTS, cytotoxicity control for RSV inhibitor project, dose response (AID 2410)", "details": "human respiratory syncytial virus"}}, "note": "Calls of active or inactive are those of the source."}
{"smiles": "Cc1cccc(NC2=c3cccc(Cl)c3=NC2=O)c1", "values": [{"measurement": "EC50", "setting": "Beta-galactosidase", "value": "> 40 µM (inactive)"}, {"measurement": "IC50", "setting": "[1]", "value": "> 40 µM (not active)"}]}
{"smiles": "Nc1c(N2CCCC2)c2ccccc2oc1=O", "values": [{"measurement": "EC50", "setting": "Beta-galactosidase", "value": "> 40 µM (inactive)"}, {"measurement": "IC50", "setting": "[1]", "value": "13.7 µM (active)"}]}
{"smiles": "C[C@H](NC(=O)c1ccco1)C(=O)Nc1nc(-c2ccccn2)cs1", "values": [{"measurement": "AC50", "setting": "[2]", "value": "90.1 µM (active)"}]}
{"smiles": "CCOc1ccc(NC(=S)NNc2ccnc3cc(Cl)ccc23)cc1", "values": [{"measurement": "IC50", "setting": "Protein Wnt-3a", "value": "11.4 µM (active)"}]}
{"smiles": "O=C(Cn1cc(SCc2ccc(F)cc2)c2ccccc21)N1CCOCC1", "values": [{"measurement": "IC50", "setting": "[3]", "value": "6.95 µM (active)"}, {"measurement": "IC50", "setting": "Caspase-3", "value": "21.1 µM (active)"}, {"measurement": "IC50", "setting": "[4]", "value": "23.2 µM (active)"}, {"measurement": "IC50", "setting": "[5]", "value": "21.1 µM (active)"}]}
{"smiles": "O=C(C[C@@H]1C/C=C\\C[C@@H](NC(=O)OCC2c3ccccc3-c3ccccc32)C(=O)OC[C@@H](Cc2ccccc2)NC1=O)NCCO", "values": [{"measurement": "IC50", "setting": "Protein Wnt-3a", "value": "13.5 µM (active)"}]}
{"smiles": "COc1ccc(-c2noc(CCCCC(=O)N3CCN(c4cc(C)ccc4C)CC3)n2)cc1", "values": [{"measurement": "AC50", "setting": "[6]", "value": "2.2 µM (active)"}, {"measurement": "AC50", "setting": "[7]", "value": "1.75 µM (active)"}, {"measurement": "IC50", "setting": "Protein Wnt-3a", "value": "2.84 µM (active)"}]}
{"smiles": "O=C1NNC(c2ccccc2)=N/C1=C\\c1ccc(Cl)cc1", "values": [{"measurement": "IC50", "setting": "[8]", "value": "22.9 µM (active)"}]}
{"smiles": "O=S(=O)(c1ccc(Br)cc1)N1CCN(c2ccc3nnc(-c4ccccc4)n3n2)CC1", "values": [{"measurement": "IC50", "setting": "[8]", "value": "8.5 µM (active)"}, {"measurement": "CC50", "setting": "[9]", "value": "32.9 µM (active)"}]}
{"smiles": "Cc1ccc2nc(C)cc(C(=O)OCC(=O)c3ccc(Cl)c([N+](=O)[O-])c3)c2c1", "values": [{"measurement": "EC50", "setting": "Beta-galactosidase", "value": "> 40 µM (inactive)"}, {"measurement": "IC50", "setting": "[1]", "value": "13.2 µM (active)"}]}
{"smiles": "Nn1c(SCc2ccccc2)nc2c(cnn2-c2ccccc2)c1=O", "values": [{"measurement": "IC50", "setting": "[3]", "value": "11.4 µM (active)"}, {"measurement": "IC50", "setting": "Caspase-3", "value": "36.1 µM (active)"}, {"measurement": "IC50", "setting": "[4]", "value": "> 100 µM (inactive)"}, {"measurement": "IC50", "setting": "[5]", "value": "> 100 µM (inactive)"}]}
